Results published in patent US10188634B2, “3-(3H-imidazo[4,5-C]pyridin-2-yl)-1 H-pyrazolo[4,3-B]pyridines and therapeutic uses thereof” (Samumed, LLC, priority 2015, dated 2019).

Legend:
Type in all cases: cell-based
SW480 colon cancer cells = assay: Cell viability assay (CellTiter-Blue) in SW480 colon cancer cells; settings: Homo sapiens, 96 h; for EC50: four days incubation, CellTiter-Blue cell viability; for inhibition at 10 µM: four days, CellTiter-Blue, read-out: percent inhibition at 10 μM (given for EC50 of >10 μM)
In short: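 About 2×10^3 SW480 colon cancer cells per well were exposed to compound (8-point 1:3 dilutions, 10 μM to 0.004 μM) for four days at 37 °C. Viability was read by CellTiter-Blue resazurin reduction (~3 h, Ex 560/Em 590). EC50 from nonlinear regression; above 10 μM, % inhibition at 10 μM is reported.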

[1] = tested on: Wnt activity (Sp5-Luc reporter, human Sp5 promoter with eight TCF/LEF binding sites) in SW480 colon carcinoma cells; assay: Screening assay for Wnt activity: Sp5-Luc reporter gene assay in SW480 cells; settings: for EC50: 10-point dose-response starting from 10 μM, overnight incubation
In short: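 SW480 cells stably carrying Sp5-Luc reporter (eight TCF/LEF sites) plated at 4,000/well in 1% FBS medium with compound (10-point 1:3 series from 10 μM, 0.1% DMSO) overnight at 37 °C. BrightGlo luminescence normalized to DMSO; EC50 by four-parameter fit, else % inhibition at 10 μM.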

[2] = tested on: LL29 cells (primary human fibroblasts derived from IPF patients) treated with TGF-β1, α-smooth muscle actin; assay: Inhibition of the fibrotic process: αSMA staining in TGF-β1 treated primary human fibroblasts from IPF patients (LL29 cells); settings: Fibroblast, 96 h; for EC50: LL29 cells treated with TGF-β1 (20 ng/mL), 4 days; for inhibition at 10 µM: LL29 cells treated with TGF-β1, 4 days, read-out: percent inhibition in brackets (given for EC50 >10 μM)

EC50 (SW480 colon cancer cells) | EC50 [1] | Compound | EC50 [2] | inhibition at 10 µM [2] | inhibition at 10 µM (SW480 colon cancer cells) | inhibition at 10 µM ([1]; 10 μM, read-out: percent inhibition at 10 μM (given for EC50 of >10 μM))
860 nM | 638 nM | CN(C)c1cncc(-c2ccc3[nH]nc(-c4nc5c(-c6cccc(F)c6)cncc5[nH]4)c3n2)c1 [Compound 7, 5-(3-(7-(3-Fluorophenyl)-3H-imidazo[4,5-c]pyridin-2-yl)-1H-pyrazolo[4,3-b]pyridin-5-yl)-N,N-dimethylpyridin-3-amine] | > 10000 nM | 0% |  | 
784 nM | 1100 nM | CN(C)Cc1cncc(-c2ccc3[nH]nc(-c4nc5c(-c6cccc(F)c6)cncc5[nH]4)c3n2)c1 [Compound 13, 1-(5-(3-(7-(3-Fluorophenyl)-3H-imidazo[4,5-c]pyridin-2-yl)-1H-pyrazolo[4,3-b]pyridin-5-yl)pyridin-3-yl)-N,N-dimethylmethanamine] | 479 nM |  |  | 
> 10000 nM | > 10000 nM | O=C(Nc1cncc(-c2ccc3[nH]nc(-c4nc5c(-c6cccc(F)c6)cncc5[nH]4)c3n2)c1)C1CC1 [Compound 20, N-(5-(3-(7-(3-Fluorophenyl)-3H-imidazo[4,5-c]pyridin-2-yl)-1H-pyrazolo[4,3-b]pyridin-5-yl)pyridin-3-yl)cyclopropanecarboxamide] | > 10000 nM | 0% | 5.1% | 7%
980 nM | 1090 nM | Fc1cccc(-c2cncc3[nH]c(-c4n[nH]c5ccc(-c6cncc(CN7CCC(F)(F)C7)c6)nc45)nc23)c1 [Compound 26, 5-(5-((3,3-Difluoropyrrolidin-1-yl)methyl)pyridin-3-yl)-3-(7-(3-fluorophenyl)-3H-imidazo[4,5-c]pyridin-2-yl)-1H-pyrazolo[4,3-b]pyridine] | 6220 nM |  |  | 
6230 nM | 2730 nM | CC(C)(C)C(=O)Nc1cncc(-c2ccc3[nH]nc(-c4nc5c(-c6ccc(F)cc6)cncc5[nH]4)c3n2)c1 [Compound 36, N-(5-(3-(7-(4-Fluorophenyl)-3H-imidazo[4,5-c]pyridin-2-yl)-1H-pyrazolo[4,3-b]pyridin-5-yl)pyridin-3-yl)pivalamide] | 1220 nM |  |  | 
1050 nM | 3350 nM | Fc1ccc(-c2cncc3[nH]c(-c4n[nH]c5ccc(-c6cncc(CN7CCCC7)c6)nc45)nc23)cc1 [Compound 42, 3-(7-(4-Fluorophenyl)-3H-imidazo[4,5-c]pyrid-2-yl)-5-(5-(pyrrolidin-1-ylmethyl)pyridin-3-yl)-1H-pyrazolo[4,3-b]pyridine] | 2470 nM |  |  | 
362 nM | 644 nM | Fc1ccccc1-c1cncc2[nH]c(-c3n[nH]c4ccc(-c5ccccn5)nc34)nc12 [Compound 84, 3-(7-(2-Fluorophenyl)-3H-imidazo[4,5-c]pyridin-2-yl)-5-(pyridin-2-yl)-1H-pyrazolo[4,3-b]pyridine] | > 10000 nM | 29.7% |  | 
6190 nM | 1350 nM | CC(C)Nc1cncc(-c2ccc3[nH]nc(-c4nc5c(-c6cccnc6)cncc5[nH]4)c3n2)c1 [Compound 96, N-Isopropyl-5-(3-(7-(pyridin-3-yl)-3H-imidazo[4,5-c]pyridin-2-yl)-1H-pyrazolo[4,3-b]pyridin-5-yl)pyridin-3-amine] | 3090 nM |  |  | 
3840 nM | 3970 nM | CN(C)c1cncc(-c2ccc3[nH]nc(-c4nc5c(N6CCCCC6)cncc5[nH]4)c3n2)c1 [Compound 175, N,N-dimethyl-5-(3-(7-(piperidin-1-yl)-3H-imidazo[4,5-c]pyridin-2-yl)-1H-pyrazolo[4,3-b]pyridin-5-yl)pyridin-3-amine] | 1310 nM |  |  | 
856 nM | 641 nM | Cc1ccncc1-c1ccc2[nH]nc(-c3nc4c(-c5ccsc5)cncc4[nH]3)c2n1 [Compound 257, 5-(4-Methylpyridin-3-yl)-3-(7-(thiophen-3-yl)-3H-imidazo[4,5-c]pyridin-2-yl)-1H-pyrazolo[4,3-b]pyridine] | 8550 nM |  |  | 
3440 nM | 3720 nM | CCCC(=O)Nc1cncc(-c2ccc3[nH]nc(-c4nc5c(-c6ccsc6)cncc5[nH]4)c3n2)c1 [Compound 269, N-(5-(3-(7-(Thiophen-3-yl)-3H-imidazo[4,5-c]pyridin-2-yl)-1H-pyrazolo[4,3-b]pyridin-5-yl)pyridin-3-yl)butyramide] | 7220 nM |  |  | 
1020 nM | 1040 nM | FC1(F)CCN(Cc2cncc(-c3ccc4[nH]nc(-c5nc6c(-c7ccsc7)cncc6[nH]5)c4n3)c2)C1 [Compound 278, 5-(5-((3,3-difluoropyrrolidin-1-yl)methyl)pyridin-3-yl)-3-(7-(thiophen-3-yl)-3H-imidazo[4,5-c]pyridin-2-yl)-1H-pyrazolo[4,3-b]pyridine] | 1700 nM |  |  | 
646 nM | 597 nM | CC(C)Nc1cncc(-c2ccc3[nH]nc(-c4nc5c(-c6ccoc6)cncc5[nH]4)c3n2)c1 [Compound 292, 5-(3-(7-(Furan-3-yl)-3H-imidazo[4,5-c]pyridin-2-yl)-1H-pyrazolo[4,3-b]pyridin-5-yl)-N-isopropylpyridin-3-amine] | 1150 nM |  |  | 
4610 nM | 8610 nM | c1cc(-c2cncc3[nH]c(-c4n[nH]c5ccc(-c6cncc(CNCC7CCCC7)c6)nc45)nc23)co1 [Compound 305, 1-Cyclopentyl-N-((5-(3-(7-(furan-3-yl)-3H-imidazo[4,5-c]pyridin-2-yl)-1H-pyrazolo[4,3-b]pyridin-5-yl)pyridin-3-yl)methyl)methanamine] | > 10000 nM | 0% |  | 
> 10000 nM | 710 nM | CN(C)c1cncc(-c2ccc3[nH]nc(-c4nc5c(-c6cccs6)cncc5[nH]4)c3n2)c1 [Compound 315, N,N-Dimethyl-5-(3-(7-(thiophen-2-yl)-3H-imidazo[4,5-c]pyridin-2-yl)-1H-pyrazolo[4,3-b]pyridin-5-yl)pyridin-3-amine] | > 10000 nM | 34.3% | 43.8% | 
97 nM | 41 nM | Cc1ccc(-c2cncc3[nH]c(-c4n[nH]c5ccc(-c6cncc(N)c6)nc45)nc23)s1 [Compound 367, 5-(3-(7-(5-Methylthiophen-2-yl)-3H-imidazo[4,5-c]pyridin-2-yl)-1H-pyrazolo[4,3-b]pyridin-5-yl)pyridin-3-amine] | 815 nM |  |  | 
5360 nM | 1660 nM | CC(C)Nc1cncc(-c2ccc3[nH]nc(-c4nc5c(-c6cc(F)cc(NCCN(C)C)c6)cncc5[nH]4)c3n2)c1 [Compound 432, N^1-(3-Fluoro-5-(2-(5-(5-(isopropylamino)pyridin-3-yl)-1H-pyrazolo[4,3-b]pyridin-3-yl)-3H-imidazo[4,5-c]pyridin-7-yl)phenyl)-N^2,N^2-dimethylethane-1,2-diamine] | 6400 nM |  |  | 
> 10000 nM | 3210 nM | Cc1ccncc1-c1ccc2[nH]nc(-c3nc4c(-c5cc(F)cc(CNS(C)(=O)=O)c5)cncc4[nH]3)c2n1 [Compound 453, N-(3-Fluoro-5-(2-(5-(4-methylpyridin-3-yl)-1H-pyrazolo[4,3-b]pyridin-3-yl)-3H-imidazo[4,5-c]pyridin-7-yl)benzyl)methanesulfonamide] | > 10000 nM | 0% | 37.3% | 
